Measured values published in article PMC9029089, “1,5-Disubstituted Acylated 2-Amino-4,5-dihydroimidazoles as a New Class of Retinoic Acid Receptor–Related Orphan Receptor (ROR) Inhibitors” (International Journal of Molecular Sciences, 2022).

Assays:
[1] = target: T1, RORγ (Mus musculus, UniProt P51450); assay: Gal4-RORγ-LBD UAS-luciferase reporter assay in TRex-CHO-K1 cells (doxycycline-stimulated); type: cell-based; conditions: individual controls 1295.201-307, 5 μg/ml, triplicate
T1 construct: mRORγ (Pro-261-end); expressed in transfected cells
T1 sequence (P51450 261-516 limits assumed): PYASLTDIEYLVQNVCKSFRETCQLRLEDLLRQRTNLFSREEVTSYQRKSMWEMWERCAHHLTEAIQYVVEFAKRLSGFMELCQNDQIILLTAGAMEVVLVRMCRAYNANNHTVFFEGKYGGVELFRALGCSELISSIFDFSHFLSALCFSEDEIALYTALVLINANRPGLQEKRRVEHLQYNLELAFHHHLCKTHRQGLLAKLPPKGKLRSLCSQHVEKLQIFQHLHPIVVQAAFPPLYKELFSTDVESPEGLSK

[2] = system: TRex-CHO-luciferase-RORγ cells; assay: resazurin cell viability assay; type: cell-based; conditions: 5 µg/mL
Experimental: For screening FIU libraries, cells were resuspended in Ham’s F-12 assay medium containing 2% charcoal-treated FBS and no selection drugs. Ten thousand cells per well were seeded in 30 µL of assay medium in 384 white plates with clear bottom (Greiner). Cells were allowed to attach for 2 h, followed by compound treatment and stimulation with 20 ng/mL doxycycline for an additional 16–20 h. Appropriate solvent controls, negative controls with no doxycycline, and blanks with no cells were included in every plate. Prior to measuring luciferase activity, 6 µL of 0.15 mg/mL resazurin (Cayman Chemical) in PBS were added and cells were incubated for 1 h at 37 °C. Fluorescence intensity was detected at 545 nm excitation/590 nm emission using a CLARIOstar reader (BMGLabtech) as a measure of cell viability, to identify any potential cytotoxic effect of test compounds and mixtures. Following the resazurin assay, the medium was removed and 20 µL of BriteLite-Plus luciferase reagent (Perking Elmer) were added; luminescence was measured in a CLARIOstar reader using a 384 aperture spoon and a 0.1 sec measuring time interval.

[3] = system: experimental autoimmune encephalomyelitis mouse model; design: method as in PMID 21441909, PMID 21499262, PMID 21566134; conditions: EAE mouse model; cited from earlier work
[4] = system: Th17 cells; design: method as in PMID 21441909, PMID 21499262, PMID 21566134; conditions: RORγ inverse agonists; cited from earlier work

O=C(Cc1ccccc1)NC1=NC[C@H](Cc2ccccc2)N1CCC12CC3CC(CC(C3)C1)C2 [1295.271]
% Inhibition RORγ 5 μg/ml [1]: 36.0% | toxicity as determined by a resazurin assay [2]: significant toxicity

C[C@H]1O[C@@H](O[C@H]2[C@@H](O)C[C@H](O[C@H]3[C@@H](O)C[C@H](O[C@H]4CC[C@@]5(C)[C@H](CC[C@@H]6[C@@H]5C[C@@H](O)[C@]5(C)[C@@H](C7=CC(=O)OC7)CC[C@]65O)C4)O[C@@H]3C)O[C@@H]2C)C[C@H](O)[C@@H]1O [digoxin]
suppression of the onset of disease [3]: suppress Th17 differentiation and the onset of disease | suppression of Th17 differentiation [4]: suppress Th17 differentiation

C[C@H]1[C@H](C)CC[C@]2(C(=O)O)CC[C@]3(C)C(=CC[C@@H]4[C@@]5(C)CC[C@H](O)C(C)(C)[C@@H]5CC[C@]43C)[C@H]12 [ursolic acid]
suppression of the onset of disease [3]: suppress Th17 differentiation and the onset of disease | suppression of Th17 differentiation [4]: suppress Th17 differentiation

CC(=O)Nc1nc(C)c(S(=O)(=O)Nc2ccc(C(O)(C(F)(F)F)C(F)(F)F)cc2)s1 [SR1001]
suppression of the onset of disease [3]: suppress Th17 differentiation and the onset of disease | suppression of Th17 differentiation [4]: suppress Th17 differentiation
